Measurements as given in patent US20260226071A1, “2, 4-DIANILINOPYRIMIDINE-BASED AURORA-A KINASE SELECTIVE DEGRADATION INDUCING COMPOUNDS” (UPPTHERA, INC., priority 2023, published 2026).

Molecular target: T1, Aurora kinase A (AURKA) (Homo sapiens, UniProt O14965)
T1 construct: endogenous in cells; host or cells: HeLa LgBit (AURKA-HiBit KI), CRISPR/Cas9 knock-in at the endogenous AURKA locus
T1 sequence (O14965 1-403): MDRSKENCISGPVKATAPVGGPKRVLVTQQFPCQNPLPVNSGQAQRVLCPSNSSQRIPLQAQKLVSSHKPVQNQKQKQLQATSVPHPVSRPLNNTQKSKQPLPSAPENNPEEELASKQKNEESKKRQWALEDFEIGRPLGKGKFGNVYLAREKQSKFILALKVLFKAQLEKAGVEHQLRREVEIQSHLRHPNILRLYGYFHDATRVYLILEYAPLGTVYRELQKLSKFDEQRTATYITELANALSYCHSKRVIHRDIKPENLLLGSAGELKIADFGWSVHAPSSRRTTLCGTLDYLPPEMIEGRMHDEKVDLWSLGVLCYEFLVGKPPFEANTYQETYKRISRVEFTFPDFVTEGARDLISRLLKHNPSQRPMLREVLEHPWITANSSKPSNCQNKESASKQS
Assay: Luciferase assay for AURKA in HeLa LgBit (AURKA-HiBit KI) cell line
Type: cell-based
Conditions: HeLa LgBit (AURKA-HiBit KI) cells, measured after 12 hours
Summary of the method: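 Test compounds (10 nM or 100 nM) added to AURKA-HiBit knock-in HeLa LgBit cells that had been pre-loaded with Endurazine for 2 h following an 18 h culture at 3×10^4 cells. Endogenous AURKA-HiBit level followed by luminescence (470-480 nm), measured after 12 h.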

Row | SMILES | luminescence value (Level) (10 nM compound) | luminescence value (Level) (100 nM compound)
1 | O=C1CCC(c2ccc(N3CCN(CCC4CCN(NC(=O)c5ccc(Nc6ncc(F)c(Nc7ccc(C(=O)Nc8ccccc8Cl)cc7)n6)cc5F)CC4)CC3)cc2)C(=O)N1 (centres unmarked) [Compound 105, 4-[[4-[4-[(2-chlorophenyl)carbamoyl]anilino]-5-fluoro-pyrimidin-2-yl]amino]-N-[4-[2-[4-[4-(2,6-dioxo-3-piperidyl)phenyl]piperazin-1-yl]ethyl]-1-piperidyl]-2-fluoro-benzamide] | B (B is 0.3 to 0.5) | A (A is <0.2)
2 | CN(CC1CCN(c2ccc(C3CCC(=O)NC3=O)cc2)CC1)[C@@H]1CCC[C@@H]1NC(=O)c1ccc(Nc2ncc(F)c(Nc3ccc(C(=O)Nc4ccccc4Cl)cc3)n2)cc1 (stereo partly drawn) [Compound 10, N-(2-chlorophenyl)-4-((2-((4-(((1S,2R)-2-(((1-(4-(2,6-dioxopiperidin-3-yl)phenyl)piperidin-4-yl)methyl)(methyl)amino)cyclopentyl)carbamoyl)phenyl)amino)-5-fluoropyrimidin-4-yl)amino)benzamide] | D (D is 0.7 to 0.8) | C (C is 0.4 to 0.6)
3 | O=C1CCC(NC(=O)c2ccc(N3CCC(CN4CCN(C(=O)Cc5ccc(Nc6ncc(F)c(Nc7ccc(C(=O)Nc8ccccc8Cl)cc7)n6)cc5)CC4)CC3)cc2)C(=O)N1 (centres unmarked) [Compound 46, N-(2-chlorophenyl)-4-((2-((4-(2-(4-((1-(4-((2,6-dioxopiperidin-3-yl)carbamoyl)phenyl)piperidin-4-yl)methyl)piperazin-1-yl)-2-oxoethyl)phenyl)amino)-5-fluoropyrimidin-4-yl)amino)benzamide] | C (C is 0.5 to 0.7) | B (B is 0.2 to 0.4)
4 | O=C1CCC(c2ccc(N3CCC4(CC3)CC(C3CCN(NC(=O)c5ccc(Nc6ncc(F)c(Nc7ccc(C(=O)Nc8ccccc8Cl)cc7)n6)cc5)CC3)C4)cc2)C(=O)N1 (centres unmarked) [Compound 60, N-(2-chlorophenyl)-4-((2-((4-((4-(7-(4-(2,6-dioxopiperidin-3-yl)phenyl)-7-azaspiro[3.5]nonan-2-yl)piperidin-1-yl)carbamoyl)phenyl)amino)-5-fluoropyrimidin-4-yl)amino)benzamide] | D (D is 0.7 to 0.8) | B (B is 0.2 to 0.4)
